Experimental findings from patent US20140349955A1, “USE OF FLUORINE-CONTAINING WATER SOLUBLE PLATINUM COMPLEX IN PREPARING DRUGS FOR PREVENTION AND TREATMENT OF CANCERS” (GUDUI BIOPHARMA TECHNOLOGY INC., priority 2011, published 2014) are described below.

What all share (assay type): cell-based, human
Holding throughout (conditions): 96 h

The test system of one experiment is HT29. The experiment is described as follows: Synergistic cytotoxicity test (MTS), HT29. How it is done:
(§1) Containing 10% bovine fetal serum, 1 mM of sodium pyruvate, 2 mM of L-glutamine, 50 U/mL of penicillin, 50 μg/ mL of streptomycin.
(§2) Human tumor cells: du145-human prostate cancer; MCF-7-human breast cancer; SK0V3-human ovarian carcinoma, HT-29-human colon cancer; A549-human non-small cell lung cancer (adenocarcinoma), H460-human non-small cell lung cancer (large cell carcinoma), and animal tumor cells: L1210-mice leukemia cells used in the following activity test experiments were all purchased from Shanghai An Yan Commercial Trade Co., Ltd.
(§3) MTS test method was used in cytotoxicity assay. The tumor cells of logarithmic phase were collected, and then the concentration of cell suspension was adjusted, 100 μL of the cell suspension was added to each well, the cells were placed at 1000-10000 cells/well (edge well filled with sterile PBS). Cells were incubated at 37° C. with 5% CO2 to make cell monolayer overspread the bottom of each well (96-well flat-bottomed microplate). 100 μL of certain concentration solution of a mixture of the fluorine-containing water-soluble platinum complex with other antitumor agents was added to each well. Each condition was measured in five replicates. The microplate was incubated at 37° C. with 5% CO2 for 96 h and checked with inverted microscope. MTS working reagent: To 2 mL of MTS (2 mg/mL, prepared by DPBS) was added 100 μL of PMS (1 mg/mL, prepared by DPBS). The cell culture medium was discarded after centrifugation, the cell culture plate was carefully washed 2-3 times with PBS. Before detecting the absorbance value (OD), to each sample containing well was added 100 μL of cell culture medium, then 20 μL of MTS working reagent was added. After incubation at 37° C. with 5% CO2 for 2 h, the OD (optical density) value was detected at 490 nm.
(§4) Each of above experiment was repeated five times, and the cell viability was calculated according to the mean OD values.
(§5) Cell Viability (%)=(treated group OD value/control group OD value)×100
(§6) Control group: the conditions are the same as the above without adding the tested drug mixture (100 μL of culture medium was added in stead), and finally the absorbance was measured at 490 nm to obtain the OD value of the tumor cells.
(§7) Drug Group-1: only the fluorine-containing water-soluble platinum complex was added under the above conditions to obtain cell viability of tumor cells.
(§8) Drug Group-2: only the other chemotherapeutic drug (active ingredient) was added under the above conditions to obtain cell viability of tumor cells.
(§9) Drug Combination Group: the fluorine-containing water-soluble platinum complex and other chemotherapeutic drugs were added simultaneously under the above conditions to obtain cell viability of tumor cell. (2) Evaluation Method:
(§10) When the fluorine-containing water-soluble platinum complexes used in combination with other chemotherapy drugs, the inhibition effect on cancer cell proliferation is enhanced or synergistic, and the effect was calculated using the following formula:
(§11) Combination Effect (%)={[(A1-X)+(A2-X)]/(A1-A2)|}×100
(§12) wherein, A1 is the cell viability of drug group-1, A2 is the cell viability of drug group-2, X is the cell viability of drug combination group, (A1-A2)| is the absolute value of the cell viability difference between the two groups.
(§13) Calculated according to the above formula, when the results of [Combination Effect (%)]>+100%, that means the effect of inhibition on cell proliferation is enhanced or synergistic (3) Experimental Result: […]

The test system of another experiment is DU145. The experiment is described as follows: Synergistic cytotoxicity test (MTS), DU145. How it is done: as §1, §2, §3, §4, §5, §6, §7, §8, §9, §10, §11, §12, §13
Another experiment has as its system A549. The experiment can be described thus: Synergistic cytotoxicity test (MTS), A549. How it is done: as §1, §2, §3, §4, §5, §6, §7, §8, §9, §10, §11, §12, §13
The next experiment concerns MCF7. The experiment can be described thus: Synergistic cytotoxicity test (MTS), MCF7. How it is done:
as §1, §2, §3, §4, §5, §6, §7, §8, §9, §10, §11, §12, §13

The next experiment deals with H460. The experiment can be described thus: Synergistic cytotoxicity test (MTS), H460. How it is done:
as §1, §2, §3, §4, §5, §6, §7, §8, §9, §10, §11, §12, §13

The next experiment deals with SK0V3. The experiment is described as follows: Synergistic cytotoxicity test (MTS), SKOV3. How it is done:
as §1, §2, §3, §4, §5, §6, §7, §8, §9, §10, §11, §12, §13

[1] abbreviates: other chemotherapy drug (at its listed dosage) combined with Complex 2 (dosage: 1 μM).
Setting [2] is: other chemotherapy drug (at its listed dosage) combined with Complex 3 (dosage: 1 μM).
The mark [3] stands for this setting: other chemotherapy drug (at its listed dosage) combined with Complex 5 (dosage: 1 μM).
The mark [4] stands for this setting: other chemotherapy drug (at its listed dosage) combined with Complex 6 (dosage: 1 μM).
Setting [5] is: other chemotherapy drug (at its listed dosage) combined with Complex 2 (dosage: 1 μM), SLOV3.
The mark [6] stands for this setting: other chemotherapy drug (at its listed dosage) combined with Complex 3 (dosage: 1 μM), SlOV3.
Where [7] appears, read: other chemotherapy drug (at its listed dosage) combined with Complex 5 (dosage: 1 μM), SLOV3.
The mark [8] stands for this setting: other chemotherapy drug (at its listed dosage) combined with Complex 6 (dosage: 1 μM), SLOV3.

Turning to `O=c1[nH]cc(F)c(=O)[nH]1` [5-Fluorouracil], the “the effect of drug combination (Combination Effect)” value (from here on “the effect of drug combination”) in the experiment on HT29 (setting [1]), in the experiment on HT29 (setting [2]), in the experiment with HT29 (setting [3]), in the experiment on HT29 (setting [4]), with DU145 (setting [1]) and with DU145 (setting [2]) was “⊚ (⊚ represents the effect of drug combination > 300%)” in each case. Besides, the “the effect of drug combination” value with DU145 (setting [3]), in the experiment with DU145 (setting [4]), in the experiment on A549 (setting [1]), in the experiment on A549 (setting [2]), in the experiment on MCF7 (setting [1]) and in the experiment with MCF7 (setting [2]) was “⊚ (⊚ represents the effect of drug combination > 300%)” in each case. The “the effect of drug combination” value in the experiment with MCF7 (setting [3]), in the experiment with MCF7 (setting [4]), in the experiment with H460 (setting [3]), in the experiment with H460 (setting [4]), in the experiment on SK0V3 (setting [5]) and with SK0V3 (setting [6]) was “⊚ (⊚ represents the effect of drug combination > 300%)” throughout. Besides, the “the effect of drug combination” value in the experiment with SK0V3 (setting [7]) and in the experiment with SK0V3 (setting [8]) was “⊚ (⊚ represents the effect of drug combination > 300%)” each time.
On to `CCCCCOC(=O)Nc1nc(=O)n([C@@H]2O[C@H](C)[C@@H](O)[C@H]2O)cc1F` [Capecitabine], for which the “the effect of drug combination” value with HT29 (setting [1]) is “⊚ (⊚ represents the effect of drug combination > 300%)”; with HT29 (setting [2]) it was “○ (○ represents: 100% < the effect of drug combination < 300%)”; in the experiment on HT29 (setting [3]), “○ (○ represents: 100% < the effect of drug combination < 300%)”; in the experiment on HT29 (setting [4]), “○ (○ represents: 100% < the effect of drug combination < 300%)”; in the experiment on DU145 (setting [1]) it was “○ (○ represents: 100% < the effect of drug combination < 300%)”; with DU145 (setting [2]) it was “○ (○ represents: 100% < the effect of drug combination < 300%)”. In addition, the “the effect of drug combination” value in the experiment with DU145 (setting [3]) is “○ (○ represents: 100% < the effect of drug combination < 300%)”; in the experiment with DU145 (setting [4]), “○ (○ represents: 100% < the effect of drug combination < 300%)”; with A549 (setting [1]) it was “○ (○ represents: 100% < the effect of drug combination < 300%)”; in the experiment with A549 (setting [2]), “○ (○ represents: 100% < the effect of drug combination < 300%)”; in the experiment on MCF7 (setting [1]), “⊚ (⊚ represents the effect of drug combination > 300%)”; in the experiment with MCF7 (setting [2]) it was “⊚ (⊚ represents the effect of drug combination > 300%)”. Besides, the “the effect of drug combination” value in the experiment on MCF7 (setting [3]) is “⊚ (⊚ represents the effect of drug combination > 300%)”; in the experiment on MCF7 (setting [4]), “⊚ (⊚ represents the effect of drug combination > 300%)”; in the experiment with H460 (setting [3]), “○ (○ represents: 100% < the effect of drug combination < 300%)”; with H460 (setting [4]) it was “○ (○ represents: 100% < the effect of drug combination < 300%)”; in the experiment on SK0V3 (setting [5]) it was “○ (○ represents: 100% < the effect of drug combination < 300%)”; in the experiment on SK0V3 (setting [6]) it was “○ (○ represents: 100% < the effect of drug combination < 300%)”. The “the effect of drug combination” value in the experiment with SK0V3 (setting [7]) and in the experiment with SK0V3 (setting [8]) was “○ (○ represents: 100% < the effect of drug combination < 300%)” in each case.
In the case of `Nc1ccn([C@@H]2O[C@H](CO)[C@@H](O)C2(F)F)c(=O)n1` [Gemcitabine], the “the effect of drug combination” value in the experiment on HT29 (setting [1]) is “⊚ (⊚ represents the effect of drug combination > 300%)”; in the experiment with HT29 (setting [2]) it was “⊚ (⊚ represents the effect of drug combination > 300%)”; in the experiment with HT29 (setting [3]) it was “⊚ (⊚ represents the effect of drug combination > 300%)”; in the experiment on HT29 (setting [4]) it was “⊚ (⊚ represents the effect of drug combination > 300%)”; in the experiment with DU145 (setting [1]), “⊚ (⊚ represents the effect of drug combination > 300%)”; with DU145 (setting [2]) it was “○ (○ represents: 100% < the effect of drug combination < 300%)”. Moreover, the “the effect of drug combination” value in the experiment on DU145 (setting [3]) is “○ (○ represents: 100% < the effect of drug combination < 300%)”; in the experiment with DU145 (setting [4]), “○ (○ represents: 100% < the effect of drug combination < 300%)”; with A549 (setting [1]) it was “⊚ (⊚ represents the effect of drug combination > 300%)”; in the experiment on A549 (setting [2]) it was “⊚ (⊚ represents the effect of drug combination > 300%)”; in the experiment on MCF7 (setting [1]) it was “⊚ (⊚ represents the effect of drug combination > 300%)”; in the experiment with MCF7 (setting [2]) it was “⊚ (⊚ represents the effect of drug combination > 300%)”. The “the effect of drug combination” value with MCF7 (setting [3]) is “⊚ (⊚ represents the effect of drug combination > 300%)”; with MCF7 (setting [4]), “⊚ (⊚ represents the effect of drug combination > 300%)”; with H460 (setting [3]) it was “⊚ (⊚ represents the effect of drug combination > 300%)”; in the experiment on H460 (setting [4]), “⊚ (⊚ represents the effect of drug combination > 300%)”; in the experiment on SK0V3 (setting [5]) it was “⊚ (⊚ represents the effect of drug combination > 300%)”; in the experiment on SK0V3 (setting [6]), “○ (○ represents: 100% < the effect of drug combination < 300%)”. Besides, the “the effect of drug combination” value in the experiment with SK0V3 (setting [7]) and with SK0V3 (setting [8]) was “○ (○ represents: 100% < the effect of drug combination < 300%)” in each case.
